Measurements taken from US9382204B2, “Inhibitors targeting the DNA-binding domain of human STAT3 for treatment of metastatic cancers” (Indiana University Research and Technology Corporation, priority 2013, dated 2016).

Assays:
Type in all cases: cell-based, human
[1] = system: A549 and MDA-MB-231 cells; experiment: Luminescence-based glutathione alkylation assay (GSH-Glo); settings: 20 μM inS3-54 48 hours, 15 mM iodoacetamide 30 minutes
Description: FIG. 5. Effect of inS3-54 glutathione level. […] (***p<0.001).
To further eliminate the possibility that inS3-54 has alkylating activity, we performed luminescence-based glutathione alkylation assay.

STAT3 [2] = experiment: STAT3 dimerization (STAT3c non-reducing PAGE, HA/FLAG co-immunoprecipitation) in H1299 cells; settings: 20 μM
Description: To eliminate the possibility that inS3-54 works by off-targeting to the SH2 domain, we tested if inS3-54 inhibits STAT3 dimerization using FLAG-STAT3c, which forms spontaneous homo-dimers via formation of intermolecular disulfide bond.
However, inS3-54 had no effect on production of dimeric STAT3c separated using non-reducing SDS-PAGE or non-denaturing PAGE (FIG. 6B) while S3I-201, a STAT3 inhibitor that binds to the SH2 domain, inhibited STAT3c dimerization (FIG. 6B). To confirm this observation, we performed a co-immunoprecipitation analysis of HA and FLAG-tagged STAT3.

STAT3 [3] = experiment: STAT3-dependent luciferase reporter assay in MDA-MB-231-STAT3 stable cells; settings: 20 μM; for Rel. luciferase activity (%) 1: experiment 1, relative to DMSO; for Rel. luciferase activity (%) 2: experiment 2, relative to DMSO; for Rel. luciferase activity (%) 3: experiment 3, relative to DMSO; for Rel. luciferase activity (%) Mean: mean of experiments, relative to DMSO; for inhibition of luciferase expression compared to DMSO vehicle control: significant = p value less than 0.05
Procedure: FIG. 12. Identification of active inS3-54 analogues. (A) Effects of inS3-54 analogues on STAT3-dependent luciferase expression. MDA-MB-231 cells with stable STAT3-dependent luciferase expression were treated with DMSO control, 20 μM inSTAT3-54 or its analogues (A1-A79), followed by measurement of luciferase activity. (*p<0.05; **p<0.01; ***p<0.001).
MDA-MB-231-STAT3 stable cell line with high level of STAT3-dependent luciferase expression was exposed to candidate compounds at 20 μM in DMSO for 48 hours based on previous studies, and luciferase activity was measured using a luciferase assay kit (Promega, USA), following manufacturer's instructions. The final DMSO concentration in this and following assays was 0.1% (vol/vol).

SMILES | glutathione level [1] | production of dimeric STAT3c (STAT3 [2]; 24 hrs, non-reducing SDS-PAGE or non-denaturing PAGE) | co-immunoprecipitation between HA- and FLAG-tagged STAT3 (STAT3 [2]; H1299 cells) | Rel. luciferase activity (%) 1 (STAT3 [3]) [%] | Rel. luciferase activity (%) 2 (STAT3 [3]) [%] | Rel. luciferase activity (%) 3 (STAT3 [3]) [%] | Rel. luciferase activity (%) Mean (STAT3 [3]) [%] | inhibition of luciferase expression compared to DMSO vehicle control (STAT3 [3])
NC(=O)CI [iodoacetamide, reference compound] | significantly reduced | – | – | – | – | – | – | –
Cc1ccc(S(=O)(=O)OCC(=O)Nc2ccc(C(=O)O)c(O)c2)cc1 [Compound S3I-201, reference compound] | – | inhibited | inhibited | – | – | – | – | –
COc1ccccc1N1C(=O)C(=Cc2ccc(Cl)cc2)C=C1c1ccccc1 [Compound A75] | – | – | – | 28.7 | 71.4 | 45.4 | 48.5 | significantly inhibited
O=C1C(=Cc2ccc(-c3ccc([N+](=O)[O-])cc3)o2)C=C(c2ccccc2)N1c1ccccc1Cl [Compound A14] | – | – | – | 140.4 | 129.3 | 72.3 | 114.0 | –
COc1ccc(C=C2C=C(c3ccccc3)N(c3ccc(O)cc3)C2=O)cc1 [Compound A72] | – | – | – | 34.2 | 58.1 | 34.1 | 42.1 | significantly inhibited
O=C1C(=Cc2ccc(-c3ccc([N+](=O)[O-])cc3)o2)C=C(c2ccccc2)N1c1ccc(Cl)cc1 [Compound A6] | – | – | – | 110.9 | 112.7 | 71.0 | 98.2 | –
COC(=O)c1cccc(N2C(=O)C(=Cc3ccc(Cl)cc3)C=C2c2ccccc2)c1 [Compound A19] | – | – | – | 45.7 | 101.8 | 60.1 | 69.2 | –
CC(C)(C)c1ccc(N2C(=O)C(=Cc3ccc(Cl)cc3)C=C2c2ccccc2)cc1 [Compound A21] | – | – | – | 158.0 | 174.7 | 159.1 | 163.9 | –
O=C1C(=Cc2ccc(-c3ccc([N+](=O)[O-])cc3)o2)C=C(c2ccccc2)N1c1ccccc1 [Compound A62] | – | – | – | 71.1 | 111.3 | 52.2 | 78.2 | –
